In patent US20080019913A1 (UNIVERSITY OF ARIZONA OFFICE OF TECHNOLOGY TRANSFER, published 2008):
Non-standard residues stand in square brackets, D forms with d. Residues, ends and D or L forms follow the SMILES beside them. No end group written: not given here. *: point of attachment. β‑lactoside = OC[C@H]1O[C@@H](O[C@H]2[C@H](O)[C@@H](O)[C@H](*)O[C@@H]2CO)[C@H](O)[C@@H](O)[C@H]1O; X2 = OC[C@H]1O[C@@H](O[C@H]2[C@H](O)[C@@H](O)[C@H](*)O[C@@H]2CO)[C@H](O)[C@@H](O)[C@H]1O; βGlc = OC[C@H]1O[C@@H](*)[C@H](O)[C@@H](O)[C@@H]1O; β‑D‑xyloside = O[C@@H]1[C@@H](O)[C@H](*)OC[C@H]1O; X1 = O[C@@H]1[C@@H](O)[C@H](*)OC[C@H]1O; NMeF = CN[C@@H](Cc1ccccc1)C(=O)O

Experiments:
[1] = target: T1, human Δ-opioid receptor (DOR) (Homo sapiens, UniProt P41143); assay: biochemical; type: binding
T1 construct: expressed in transfected cells; host or cells: Chinese hamster ovary (CHO) cells

[2] = tested on: adult male ICR mice; assay: 55° C. warm water tail-flick test (antinociception); type: in vivo, mouse; conditions: for A50 i.c.v. / A50 i.v.: mouse 55° C. tail-flick, time of peak effect; for A50 i.c.v.: i.c.v. administration; for A50 i.v.: i.v. administration
Method: All in vivo studies used adult male ICR mice (25-30 g; Harlan Industries, Cleveland, Ohio, USA) that were maintained on a 12 h light/dark cycle (lights on at 07:00 hours) in a temperature and humidity-controlled animal colony. All testing was carried out between 10:00 and 15:00 hours. Studies were carried out in accordance with the Guide for the Care and Use of Laboratory Animals as adopted and promulgated by the National Institutes of Health.
For intracerebroventricular (i.c.v.) injections, mice were lightly anesthetized with ether and an incision was made in the scalp. Injections were performed using a 10 μL Hamilton microsyringe (Hamilton Company, Reno, Nev., USA) at a point 2 mm caudal and 2 mm lateral from bregma. Compounds were injected at a depth of 3 mm in a volume of 5 μL. Intravenous (i.v.) injections were performed by restraining the mouse in a Plexiglas holder, dipping the tail for 10 seconds in 40° C. warm water to dilate the tail vein, and subsequent injection into the vein with a 30-gauge needle. All compounds were dissolved in distilled water (i.c.v. injections) or physiologic saline (i.v. injections).
Antinociception was assessed using the 55° C. warm water tail-flick test. The latency to the first sign of a rapid tail-flick was taken as the behavioral end-point. Each mouse was first tested for baseline latency by immersing its tail in the water and recording the time to response. Mice not responding within 5 seconds were excluded from further testing (average latency=2.1 seconds). Mice were then administered the test compound and tested for antinociception at 10, 20, 30, 45, 60, 90, 120 and 180 min postinjection. A maximum score was assigned (100%) to animals not responding within 10 seconds. Antinociception was calculated by the following formula: % antinociception=100·(test latency ) control latency)/(10 ) control latency). Dose-response lines were constructed at times of peak agonist effect, and analyzed by linear regression using […] software (17). All A50 values (95% confidence limits) shown were calculated from the linear portion of the dose-response curve. A minimum of three doses/curve and 8-10 mice were used at each dose level.

[3] = target: T2, human μ-opioid receptor (MOR) (Homo sapiens, UniProt P35372); assay: biochemical; type: binding
T2 construct: expressed in transfected cells; host or cells: Chinese hamster ovary (CHO) cells

[4] = target: human δ-opioid receptor (human) (UniProt P41143); assay: ratio of Ki values from radioligand competition, reference MOR
[5] = target: human δ-opioid receptor (human) (UniProt P41143); assay: radioligand competition against [3H]naltrindole, CHO cell membranes expressing human DOR
[6] = target: T3, human κ-opioid receptor (human, UniProt P41145 1-380); assay: radioligand competition against [3H]U69,593, CHO cell membranes expressing human KOR
T3 construct: whole, on cells; Assayed as membranes of CHO cells expressing the receptor; also called KOR
Method: (§1) Binding was determined in Chinese hamster ovary (CHO) cell membranes expressing either the human μ-, Δ-, or κ-opioid receptors (MOR, DOR, and KOR). Cells were incubated with 12 concentrations of glycopeptide and the indicated radiolabeled ligand (Table 1, below). Non-specific binding was measured by inclusion of 10 μM naloxone. Data are the mean Kᵢ values±SEM from three experiments performed in triplicate.

[7] = target: T3, human κ-opioid receptor; assay: ratio of Ki values from radioligand competition, reference MOR
Method: as §1

[8] = target: T4, human µ-opioid receptor (human, UniProt P35372 1-400); assay: radioligand competition against [3H]DAMGO, CHO cell membranes expressing human MOR
T4 construct: whole, on cells; Assayed as membranes of CHO cells expressing the receptor; also called MOR; mu opioid receptor
Method: as §1

Molecule	Ki [1] [nM]	A50 i.c.v. [2] [pmol per mouse]	A50 i.v. [2] [µmol/kg]	Ratio µ:δ:κ (Ki at δ relative to µ) [4]	Ki [6] [nM]	Ratio µ:δ:κ (Ki at κ relative to µ) [7]	other results
C[C@@H](NC(=O)[C@@H](N)Cc1ccc(O)cc1)C(=O)NCC(=O)N(C)[C@@H](Cc1ccccc1)C(=O)N[C@@H](CO)C(N)=O [Compound 2] (HELM PEPTIDE1{Y.[dA].G.[meF].S.[am]}$$$$V2.0; N-terminus assumed)	600 ± 44	2.0	0.20				
C[C@@H](NC(=O)[C@@H](N)Cc1ccc(O)cc1)C(=O)NCC(=O)N(C)[C@@H](Cc1ccccc1)C(=O)N[C@@H](CO[C@@H]1OC[C@@H](O)[C@H](O)[C@H]1O)C(N)=O [Compound 3] (H-Y[dA]G[NMeF]S(X1)-NH2; N-terminus assumed)	730 ± 66	2.0	0.27				Ki [3]: 1.3 ± 0.16 nM
C[C@@H](NC(=O)[C@@H](N)Cc1ccc(O)cc1)C(=O)NCC(=O)N(C)[C@@H](Cc1ccccc1)C(=O)N[C@@H](CO[C@@H]1O[C@H](CO)[C@@H](O)[C@H](O)[C@H]1O)C(N)=O [Compound 4] (H-Y[dA]G[NMeF]S(βGlc)-NH2; N-terminus assumed)	> 5000	19	0.72				duration of action ([2]; after i.c.v. administration, tail-flick): > 180 min; Ki [3]: 1.3 ± 0.09 nM
C[C@@H](NC(=O)[C@@H](N)Cc1ccc(O)cc1)C(=O)NCC(=O)N(C)[C@@H](Cc1ccccc1)C(=O)N[C@@H](CO[C@@H]1O[C@H](CO)[C@@H](O[C@@H]2O[C@H](CO)[C@H](O)[C@H](O)[C@H]2O)[C@H](O)[C@H]1O)C(N)=O [Compound 5] (H-Y[dA]G[NMeF]S(X2)-NH2; N-terminus assumed)	1600 ± 129	2.0	1.15				
C[C@@H](NC(=O)[C@@H](N)Cc1ccc(O)cc1)C(=O)NCC(=O)N(C)[C@@H](Cc1ccccc1)C(=O)NCCO [DAMGO 1, [D-Ala^2,Me-Phe^4Gly^5(ol)]enkephalin, reference compound]		30	1.88				
CN1CC[C@]23c4c5ccc(O)c4O[C@H]2[C@@H](O)C=C[C@H]3[C@H]1C5 [Morphine, reference compound]			7.84				
DAMGO [D-Ala^2,Me-Phe^4Gly^5(ol)]enkephalin (peptide)				1900			Ki [5]: 990 nM
Y[dA]G[NMeF]S(βGlc)-NH2 (N-terminus assumed; SMILES C[C@@H](NC(=O)[C@@H](N)Cc1ccc(O)cc1)C(=O)NCC(=O)N(C)[C@@H](Cc1ccccc1)C(=O)N[C@@H](CO[C@@H]1O[C@H](CO)[C@@H](O)[C@H](O)[C@H]1O)C(N)=O, Glycopeptide; also called glycopeptide 4) [DAMGO analog compound (4), C-terminal L-serine amide beta-D-glucoside]				3800	170	130	
Y[dA]G[NMeF]S(β‑D‑xyloside)-NH2 (N-terminus assumed; SMILES C[C@@H](NC(=O)[C@@H](N)Cc1ccc(O)cc1)C(=O)NCC(=O)N(C)[C@@H](Cc1ccccc1)C(=O)N[C@@H](CO[C@@H]1OC[C@@H](O)[C@H](O)[C@H]1O)C(N)=O, Glycopeptide; also called glycopeptide 3) [DAMGO analog compound (3), C-terminal L-serine amide beta-D-xyloside]				560	160	120	
YAGFS (HELM PEPTIDE1{Y.[dA].G.[meF].S.[am]}$$$$V2.0; N-terminus assumed; SMILES C[C@@H](NC(=O)[C@@H](N)Cc1ccc(O)cc1)C(=O)NCC(=O)N(C)[C@@H](Cc1ccccc1)C(=O)N[C@@H](CO)C(N)=O, Made by Fmoc synthesis on Rink amide resin; also called peptide 2) [DAMGO analog compound (2), C-terminal L-serine amide]				880	190	280	Ki [8]: 0.68 nM
Y[dA]G[NMeF]S(β‑lactoside)-NH2 (N-terminus assumed; SMILES C[C@@H](NC(=O)[C@@H](N)Cc1ccc(O)cc1)C(=O)NCC(=O)N(C)[C@@H](Cc1ccccc1)C(=O)N[C@@H](CO[C@@H]1O[C@H](CO)[C@@H](O[C@@H]2O[C@H](CO)[C@H](O)[C@H](O)[C@H]2O)[C@H](O)[C@H]1O)C(N)=O, Glycopeptide; also called glycopeptide 5) [DAMGO analog compound (5), C-terminal L-serine amide beta-lactoside]				2400	350	530	Ki [8]: 0.66 nM
